According to patent US8697739B2, “Bicyclic acetyl-CoA carboxylase inhibitors and uses thereof” (Novartis AG, priority 2010, dated 2014):

Target: T1, human acetyl-CoA carboxylase 2 (ACC2) (Homo sapiens, UniProt O00763)
T1 construct: The cDNA encoding amino acids 144 to 2458 of human acetyl-CoA carboxylase 2; made in house; host or cells: Sf9 insect cells (baculovirus, pFastBac1)
Assay: Acetyl-CoA carboxylase enzyme assay (malonyl-CoA formation by LC/MS/MS)
Format: biochemical
Conditions: recombinant human ACC2 (aa 144-2458); read-out: IC50 ACC2
In short: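 Malonyl-CoA formation was read by LC/MS/MS MRM against a [13C3]-malonyl-CoA internal standard, after acetic acid quench. The enzyme was baculovirus/Sf9-expressed human ACC2 residues 144–2458, given 15 minutes room-temperature compound preincubation in HEPES pH 7.5 buffer with MgCl2, citrate and DTT. Substrate solution held 50 μM acetyl-CoA, 120 μM ATP and 2 mM KHCO3.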

T1 sequence (O00763 144-2458): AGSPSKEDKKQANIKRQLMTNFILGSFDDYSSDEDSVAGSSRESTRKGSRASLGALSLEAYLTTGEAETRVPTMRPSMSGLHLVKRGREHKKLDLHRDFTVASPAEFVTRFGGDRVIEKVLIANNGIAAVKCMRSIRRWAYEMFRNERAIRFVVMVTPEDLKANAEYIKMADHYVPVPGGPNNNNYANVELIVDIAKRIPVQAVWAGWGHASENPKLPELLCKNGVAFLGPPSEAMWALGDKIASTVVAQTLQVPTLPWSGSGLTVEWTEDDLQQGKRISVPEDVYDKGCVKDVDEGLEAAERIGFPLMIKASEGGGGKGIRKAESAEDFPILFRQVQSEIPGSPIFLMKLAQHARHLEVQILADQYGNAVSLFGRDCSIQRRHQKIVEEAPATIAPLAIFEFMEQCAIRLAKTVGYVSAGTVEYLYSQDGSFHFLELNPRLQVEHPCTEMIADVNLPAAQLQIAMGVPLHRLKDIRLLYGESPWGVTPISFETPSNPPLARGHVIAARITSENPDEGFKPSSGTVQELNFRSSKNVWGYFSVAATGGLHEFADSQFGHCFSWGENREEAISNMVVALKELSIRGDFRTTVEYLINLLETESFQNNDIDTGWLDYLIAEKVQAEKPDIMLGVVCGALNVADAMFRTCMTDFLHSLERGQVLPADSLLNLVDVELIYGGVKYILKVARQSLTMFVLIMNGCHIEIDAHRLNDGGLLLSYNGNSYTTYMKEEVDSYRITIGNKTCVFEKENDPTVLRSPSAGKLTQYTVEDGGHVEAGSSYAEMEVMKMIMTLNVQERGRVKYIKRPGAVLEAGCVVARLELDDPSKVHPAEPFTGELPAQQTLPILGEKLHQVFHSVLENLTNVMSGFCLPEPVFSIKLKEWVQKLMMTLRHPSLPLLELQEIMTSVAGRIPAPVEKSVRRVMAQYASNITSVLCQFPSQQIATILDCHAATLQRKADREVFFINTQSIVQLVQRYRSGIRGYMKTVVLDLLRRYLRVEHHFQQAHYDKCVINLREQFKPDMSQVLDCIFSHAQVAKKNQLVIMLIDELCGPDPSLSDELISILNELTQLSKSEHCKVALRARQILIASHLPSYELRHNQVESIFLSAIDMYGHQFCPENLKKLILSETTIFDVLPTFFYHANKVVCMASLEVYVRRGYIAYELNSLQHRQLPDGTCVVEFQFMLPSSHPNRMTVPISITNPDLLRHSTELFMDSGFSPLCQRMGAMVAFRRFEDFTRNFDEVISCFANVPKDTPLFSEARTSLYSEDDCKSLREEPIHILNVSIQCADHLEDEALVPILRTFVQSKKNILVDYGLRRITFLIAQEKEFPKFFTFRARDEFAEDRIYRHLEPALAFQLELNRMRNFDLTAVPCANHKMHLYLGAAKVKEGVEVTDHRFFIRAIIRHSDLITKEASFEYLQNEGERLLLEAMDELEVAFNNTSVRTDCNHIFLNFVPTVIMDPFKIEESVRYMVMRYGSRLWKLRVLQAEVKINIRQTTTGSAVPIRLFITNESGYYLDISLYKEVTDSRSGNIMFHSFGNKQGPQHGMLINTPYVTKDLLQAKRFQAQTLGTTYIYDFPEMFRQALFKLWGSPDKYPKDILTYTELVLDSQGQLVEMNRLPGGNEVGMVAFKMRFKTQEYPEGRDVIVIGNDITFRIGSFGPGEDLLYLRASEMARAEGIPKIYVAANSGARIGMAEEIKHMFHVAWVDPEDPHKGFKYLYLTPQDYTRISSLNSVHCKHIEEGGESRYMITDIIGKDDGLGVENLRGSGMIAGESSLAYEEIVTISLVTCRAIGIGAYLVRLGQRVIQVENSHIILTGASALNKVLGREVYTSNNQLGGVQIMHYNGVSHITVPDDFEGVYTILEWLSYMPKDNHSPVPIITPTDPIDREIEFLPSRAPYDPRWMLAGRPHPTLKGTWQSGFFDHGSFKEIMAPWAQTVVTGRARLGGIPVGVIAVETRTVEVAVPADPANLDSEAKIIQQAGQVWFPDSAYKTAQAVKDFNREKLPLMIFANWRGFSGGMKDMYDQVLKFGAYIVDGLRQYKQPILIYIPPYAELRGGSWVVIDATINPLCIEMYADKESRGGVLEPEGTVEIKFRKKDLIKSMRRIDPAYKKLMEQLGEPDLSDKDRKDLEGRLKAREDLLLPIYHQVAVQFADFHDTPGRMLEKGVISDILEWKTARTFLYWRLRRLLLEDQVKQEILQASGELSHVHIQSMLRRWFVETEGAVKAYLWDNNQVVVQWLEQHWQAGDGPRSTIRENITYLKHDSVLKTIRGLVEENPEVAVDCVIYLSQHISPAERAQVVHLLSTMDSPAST

SMILES	IC50
C[C@@H](NC(=O)[C@H]1CC[C@H](NS(=O)(=O)c2ccc3nc(NCCN(C)C)ccc3c2)CC1)c1ccc(F)cc1 [Example 215, (1r,4R)-4-(2-(2-(dimethylamino)ethylamino)quinoline-6-sulfonamido)-N-((R)-1-(4-fluorophenyl)ethyl)cyclohexanecarboxamide]	125 nM
C[C@@H](NC(=O)[C@H]1CC[C@H](NS(=O)(=O)c2ccc3nc(N4CCCCC4)ccc3c2)CC1)c1ccc(F)cc1 [Example 216, (1r,4R)-N-((R)-1-(4-fluorophenyl)ethyl)-4-(2-(piperidin-1-yl)quinoline-6-sulfonamido)cyclohexanecarboxamide]	180 nM
CC(C)COC(=O)N1CCNc2ccc(S(=O)(=O)N[C@H]3CC[C@H](C(=O)N[C@H](C)c4ccc(F)cc4)CC3)cc21 [Example 217, isobutyl 7-(N-((1R,4r)-4-((R)-1-(4-fluorophenyl)ethylcarbamoyl)cyclohexyl)sulfamoyl)-3,4-dihydroquinoxaline-1(2H)-carboxylate]	15 nM
C[C@@H](NC(=O)[C@H]1CC[C@H](NS(=O)(=O)c2ccc3nc(-c4cccnc4)ccc3c2)CC1)c1ccc(F)cc1 [Example 218, (1r,4R)-N-((R)-1-(4-fluorophenyl)ethyl)-4-(2-(pyridin-3-yl)quinoline-6-sulfonamido)cyclohexanecarboxamide]	20 nM
C[C@@H](NC(=O)[C@H]1CC[C@H](NS(=O)(=O)c2ccc3nc(CCC(=O)O)ccc3c2)CC1)c1ccc(F)cc1 [Example 219, 3-(6-(N-((1R,4r)-4-((R)-1-(4-fluorophenyl)ethylcarbamoyl)cyclohexyl)sulfamoyl)quinolin-2-yl)propanoic acid]	495 nM
CC(C)CCC(=O)N1CCNc2ncc(S(=O)(=O)N[C@H]3CC[C@H](C(=O)N[C@H](C)c4ccc(F)cc4)CC3)cc21 [Example 220, (1r,4R)-N-((R)-1-(4-fluorophenyl)ethyl)-4-(1-(4-methylpentanoyl)-1,2,3,4-tetrahydropyrido[3,2-b]pyrazine-7-sulfonamido)cyclohexanecarboxamide]	875 nM
COC(=O)N1CCNc2ccc(S(=O)(=O)NC3CCC(C(=O)NC(C)c4ccc(F)cc4)CC3)cc21 [Example 221, methyl 7-(N-((1R,4r)-4-((R)-1-(4-fluorophenyl)ethylcarbamoyl)cyclohexyl)sulfamoyl)-3,4-dihydroquinoxaline-1(2H)-carboxylate]	< 10 nM
COC(=O)N1CCNc2ncc(S(=O)(=O)N[C@H]3CC[C@H](C(=O)N[C@H](C)c4ccc(F)cc4)CC3)cc21 [Example 222, methyl 7-(N-((1R,4r)-4-((R)-1-(4-fluorophenyl)ethylcarbamoyl)cyclohexyl)sulfamoyl)-3,4-dihydropyrido[3,2-b]pyrazine-1(2H)-carboxylate]	40 nM
C[C@@H](NC(=O)[C@H]1CC[C@H](NS(=O)(=O)c2ccc3c(c2)C(=O)NCC3)CC1)c1ccc(F)cc1 [Example 223, (1r,4R)-N-((R)-1-(4-fluorophenyl)ethyl)-4-(1-oxo-1,2,3,4-tetrahydroisoquinoline-7-sulfonamido)cyclohexanecarboxamide]	205 nM
COC(=O)C1CCc2ccc(S(=O)(=O)N[C@H]3CC[C@H](C(=O)N[C@H](C)c4ccc(F)cc4)CC3)cc2N1C (stereo partly drawn) [Example 224, methyl 7-(N-((1R,4r)-4-((R)-1-(4-fluorophenyl)ethylcarbamoyl)cyclohexyl)sulfamoyl)-1-methyl-1,2,3,4-tetrahydroquinoline-2-carboxylate]	60 nM
C[C@@H](NC(=O)[C@H]1CC[C@H](NS(=O)(=O)c2ccc3c(c2)N(C)C(C(=O)O)CC3)CC1)c1ccc(F)cc1 (stereo partly drawn) [Example 225, 7-(N-((1R,4r)-4-((R)-1-(4-fluorophenyl)ethylcarbamoyl)cyclohexyl)sulfamoyl)-1-methyl-1,2,3,4-tetrahydroquinoline-2-carboxylic acid]	85 nM
C[C@@H](NC(=O)[C@H]1CC[C@H](NS(=O)(=O)c2ccc3c(c2)Cc2ccccc2-3)CC1)c1ccc(F)cc1 [Example 226, (1r,4R)-4-(9H-fluorene-2-sulfonamido)-N-((R)-1-(4-fluorophenyl)ethyl)cyclohexanecarboxamide]	10 nM
Cc1cc(-c2ccc3cc(S(=O)(=O)N[C@H]4CC[C@H](C(=O)N[C@H](C)c5ccc(F)cc5)CC4)ccc3n2)cc(C)n1 [Example 227, (1r,4R)-4-(2-(2,6-dimethylpyridin-4-yl)quinoline-6-sulfonamido)-N-((R)-1-(4-fluorophenyl)ethyl)cyclohexanecarboxamide]	15 nM
CCOc1ccc2cc(S(=O)(=O)N[C@H]3CC[C@H](C(=O)N[C@H](CC(=O)O)c4ccccc4)CC3)ccc2n1 [Example 228, (R)-3-((1r,4R)-4-(2-ethoxyquinoline-6-sulfonamido)cyclohexanecarboxamido)-3-phenylpropanoic acid]	213 nM
Cc1cc(-c2ccc3cc(S(=O)(=O)N[C@H]4CC[C@H](C(=O)N[C@H](C)c5ccc(F)cc5)CC4)ccc3n2)ccn1 [Example 229, (1r,4R)-N-((R)-1-(4-fluorophenyl)ethyl)-4-(2-(2-methylpyridin-4-yl)quinoline-6-sulfonamido)cyclohexanecarboxamide]	20 nM
C[C@@H](NC(=O)[C@H]1CC[C@H](NS(=O)(=O)c2ccc3nc(-c4ccccn4)ccc3c2)CC1)c1ccc(F)cc1 [Example 230, (1r,4R)-N-((R)-1-(4-fluorophenyl)ethyl)-4-(2-(pyridin-2-yl)quinoline-6-sulfonamido)cyclohexanecarboxamide]	60 nM
CCOc1ccc2cc(S(=O)(=O)N[C@H]3CC[C@](C)(C(=O)N[C@H](C)c4ccc(F)cc4)CC3)ccc2n1 [Example 231, (1r,4R)-4-(2-ethoxyquinoline-6-sulfonamido)-N-((R)-1-(4-fluorophenyl)ethyl)-1-methylcyclohexanecarboxamide]	10 nM
C[C@@H](NC(=O)[C@H]1CC[C@H](NS(=O)(=O)c2ccc3nc(N4CCN(C(=O)OC(C)(C)C)CC4)ccc3c2)CC1)c1ccc(F)cc1 [Example 232, tert-butyl 4-(6-(N-((1R,4r)-4-((R)-1-(4-fluorophenyl)ethylcarbamoyl)cyclohexyl)sulfamoyl)quinolin-2-yl)piperazine-1-carboxylate]	765 nM
C[C@@H](NC(=O)[C@H]1CC[C@H](NS(=O)(=O)c2cnc3c(c2)N(C(=O)COCc2ccccc2)CCN3)CC1)c1ccc(F)cc1 [Example 233, (1r,4R)-4-(1-(2-(benzyloxy)acetyl)-1,2,3,4-tetrahydropyrido[3,2-b]pyrazine-7-sulfonamido)-N-((R)-1-(4-fluorophenyl)ethyl)cyclohexanecarboxamide]	965 nM
CCOc1ccc2cc(S(=O)(=O)N[C@H]3CC[C@H](C(=O)N4CCNC[C@@H]4c4ccccc4)CC3)ccc2n1 [Example 234, 2-ethoxy-N-((1S,4r)-4-((S)-2-phenylpiperazine-1-carbonyl)cyclohexyl)quinoline-6-sulfonamide]	20 nM
CCOc1ccc2cc(S(=O)(=O)N[C@H]3CC[C@H](C(=O)N4CCN(C(=O)OC(C)(C)C)C[C@@H]4C(=O)OC)CC3)ccc2n1 [Example 235, (R)-1-tert-butyl 3-methyl 4-((1r,4R)-4-(2-ethoxyquinoline-6-sulfonamido)cyclohexanecarbonyl)piperazine-1,3-dicarboxylate]	95 nM
CCOc1ccc2cc(S(=O)(=O)N[C@H]3CC[C@H](C(=O)N4CCNC[C@@H]4C(=O)OC)CC3)ccc2n1 [Example 236, (R)-methyl 1-((1r,4R)-4-(2-ethoxyquinoline-6-sulfonamido)cyclohexanecarbonyl)piperazine-2-carboxylate]	385 nM
C[C@@H](NC(=O)[C@H]1CC[C@H](NS(=O)(=O)c2ccc3nc(N4CCNC5(CC5)C4)ccc3c2)CC1)c1ccc(F)cc1 [Example 237, (1r,4R)-4-(2-(4,7-diazaspiro[2.5]octan-7-yl)quinoline-6-sulfonamido)-N-((R)-1-(4-fluorophenyl)ethyl)cyclohexanecarboxamide]	85 nM
C[C@@H](NC(=O)[C@H]1CC[C@H](NS(=O)(=O)c2ccc3nc(N4CCNCC4)ccc3c2)CC1)c1ccc(F)cc1 [Example 238, (1r,4R)-N-((R)-1-(4-fluorophenyl)ethyl)-4-(2-(piperazin-1-yl)quinoline-6-sulfonamido)cyclohexanecarboxamide]	65 nM
CCNC(=O)N1CCNc2ccc(S(=O)(=O)N[C@H]3CC[C@H](C(=O)N[C@H](C)c4ccc(F)cc4)CC3)cc21 [Example 239, N-ethyl-7-(N-((1R,4r)-4-((R)-1-(4-fluorophenyl)ethylcarbamoyl)cyclohexyl)sulfamoyl)-3,4-dihydroquinoxaline-1(2H)-carboxamide]	130 nM
CC(C)(C)OC(=O)N1CCN(C(=O)[C@H]2CC[C@H](NS(=O)(=O)c3ccc4c(c3)Cc3ccccc3-4)CC2)[C@@H](c2ccccc2)C1 [Example 240, (S)-tert-butyl 4-((1r,4S)-4-(9H-fluorene-2-sulfonamido)cyclohexanecarbonyl)-3-phenylpiperazine-1-carboxylate]	< 10 nM
CC(C)(C)OC(=O)N1CCN(C(=O)[C@H]2CC[C@H](NS(=O)(=O)c3ccc4c(c3)CCC4)CC2)[C@@H](c2ccccc2)C1 [Example 241, (S)-tert-butyl 4-((1r,4S)-4-(2,3-dihydro-1H-indene-5-sulfonamido)cyclohexanecarbonyl)-3-phenylpiperazine-1-carboxylate]	25 nM
COC(=O)C1CN(c2ccc3cc(S(=O)(=O)N[C@H]4CC[C@H](C(=O)N[C@H](C)c5ccc(F)cc5)CC4)ccc3n2)CCN1 (stereo partly drawn) [Example 242, methyl 4-(6-(N-((1R,4r)-4-((R)-1-(4-fluorophenyl)ethylcarbamoyl)cyclohexyl)sulfamoyl)quinolin-2-yl)piperazine-2-carboxylate]	195 nM
